Measurements reported in US20220304309A1, “IRON COMPLEXES AND USES THEREFOR” (priority 2019, published 2022).
Entries after “also recorded” stand apart in the source; their conditions may differ. Like-named read-outs stand apart in the source and are kept apart here.

Legend:
[1] = Total, ferrous and ferric iron content of the complexes immediately after preparation (1,10-phenanthroline); details: 50 mM solution; for Ferric iron: total minus ferrous
[2] = Fenton activity test with H2O2 and methylene blue
[3] = Stability of ferrous iron complexes in solution over 180 days; details: for Ferrous iron / Total iron: room temperature in the dark; for Stability of solutions of the complex: stored at ambient temperature (TFDC in the dark)
[4] = test system: Pectobacterium carotovorum subsp. brasiliense (Pcb); experiment: In planta trial on Pcb-infiltrated potato tubers; details: weekly foliar spray or root drench
[5] = Reduction of ferric iron in the ferric tri-pyruvate complex over 10 days; format: physicochemical
Description: A 50 mM solution of the ferric tri-pyruvate complex was prepared as described in Example 5. The stability of the complex was measured by determining the total iron, ferrous iron and ferric iron over the course of 10 days.

[6] = test system: X. campestris; details: for A600: 36 hours at 28° C.
[7] = test system: spores of B. subtilis; experiment: Decontamination of surfaces contaminated with B. subtilis spores; format: cell-based, Bacillus subtilis; details: swabbing or spraying, optionally mixed with ascorbate and/or hydrogen peroxide
Description: In additional experiments, surfaces that have been intentionally contaminated with spores of B. subtilis are wiped or sprayed with solutions of FDP (e.g., 1 mM, 2 mM, 3 mM, 4 mM, 5 mM, 6 mM, 7 mM, 8 mM, 9 mM, 10 mM, 12.5 mM, 15 mM, 20 mM, 25 mM, 50 mM, 75 mM 100 mM or more); optionally including ascorbate (e.g. 10 mM) and/or hydrogen peroxide at a concentration of, e.g., 1 mM or less, 2 mM or less, 3 mM or less, 4 mM or less, 5 mM or less, 6 mM or less, 7 mM or less, 8 mM or less, 9 mM or less, 10 mM or less, 12.5 mM or less, 15 mM or less, 20 mM or less, 25 mM or less, 30 mM or less, 40 mM or less, 50 mM or less, 60 mM or less, 70 mM or less, 80 mM or less, 90 mM or less, 100 mM or less, 125 mM or less, 150 mM or less, 175 mM or less, or 200 mM or less. The surfaces are then swabbed, the swabs are suspended in water or medium, and CFU are determined by plating aliquots of serial dilutions of the liquid in which the swabs were suspended.

[8] = test system: C. liberibacter spp; format: in vivo, rough lemon trees; details: 50 μM, foliar or root drench, every three days over three months
[9] = test system: Bacillus subtilis; experiment: Bactericidal and sporicidal activity on Bacillus subtilis cells or spores suspended in water; format: cell-based; details: increasing concentrations and exposure times; 10 mM sodium ascorbate, sub-inhibitory hydrogen peroxide
Description: Because of its activity as a Fenton reagent, FDP produces reactive oxygen species (e.g. hydroxyl radicals, superoxide radicals) that are toxic to bacterial spores and spore-forming bacteria. […] After exposure to FDP for various periods of time, the number of viable colony-forming units is determined by plating aliquots of serial dilutions of the solutions.

[10] = 1 ml 50 mM complex + 1 ml 40% H2O2, 0.1% (w/v) methylene blue, 1 hour at ambient temperature
[11] = 60 Days after complex formation
[12] = 180 Days after complex formation
[13] = 0 days after complex formation, 50 mM solution
[14] = 1 day after complex formation, 50 mM solution
[15] = 7 days after complex formation, 50 mM solution
[16] = 10 days after complex formation, 50 mM solution

O=C([O-])CC(O)(CC(=O)[O-])C(=O)[O-].O=C([O-])CC(O)(CC(=O)[O-])C(=O)[O-].[Fe+2].[Fe+2].[Fe+2] [tri-ferrous di-citrate]
Ferrous iron [1]: 49.7 mM
Total iron [1]: 50 mM
Ferric iron [1]: <1 mM
Fenton activity (loss of blue color, brown precipitate) [2, 10]: exhibited Fenton activity
Fenton activity (loss of blue color, brown precipitate) ([2]; 1 ml 50 mM complex + 1 ml 40% H2O2, 0.1% (w/v) methylene blue, 1 hour at ambient temperature, listed as tri-ferrous di-citrate complex): significant Fenton activity
Light sensitivity on storage [3]: must be stored in the dark to prevent autodegradation
Ferrous iron ([3]; 1 Day after complex formation): 100 mM
Total iron ([3]; 1 Day after complex formation): 100 mM
Ferrous iron [3, 11]: 99 mM
Total iron [3, 11]: 100 mM
Ferrous iron [3, 12]: 98 mM
Total iron [3, 12]: 100 mM
Stability of solutions of the complex [3]: stable for up to six months
Symptoms of Pcb infection in potato plants [4]: reduce symptom of Pcb infection

mono-ferrous mono-citrate [mono-ferrous mono-citrate complex, reference compound]
Fenton activity (loss of blue color, brown precipitate) [2, 10]: little to no Fenton activity

ferric tri-pyruvate [ferric tri-pyruvate complex]
Ferric iron [5, 13]: >49 mM
Ferrous iron [5, 13]: <1 mM
Total iron [5, 13]: 50 mM
Oxidation state of the iron upon formation of the complex ([5]; 50 mM solution): essentially all the iron was in the ferric oxidation state
Ferric iron [5, 14]: 39 mM
Ferrous iron [5, 14]: 11 mM
Total iron [5, 14]: 50 mM
Ferric iron [5, 15]: 2 mM
Ferrous iron [5, 15]: 48 mM
Total iron [5, 15]: 50 mM
Ferric iron [5, 16]: 2 mM
Ferrous iron [5, 16]: 48 mM
Total iron [5, 16]: 50 mM
Reduction of ferric ions to ferrous ([5]; after one week (7-day period)): essentially all iron is in the ferrous oxidation state; also recorded: essentially all the ferric iron was reduced to the ferrous oxidation state
Reduction of ferric ions to ferrous ([5]; within one day after formation of the complex, ambient conditions): approximately one-fifth of ferric ions have been reduced to ferrous
Fenton activity (loss of blue color, brown precipitate) ([2]; 14-day old reduced complex, 50 mM + 40% H2O2, 1 hour at ambient temperature): significant Fenton activity

O=C1O[C@H]([C@@H](O)CO)C([O-])=C1O.[Na+] [ascorbate, sodium ascorbate, reference compound]
A600 ([6]; no preincubation, addition 5 mM ascorbate): 0.512

mono-ferrous di-citrate [mono-ferrous di-citrate complex, reference compound]
Fenton activity (loss of blue color, brown precipitate) [2, 10]: little to no Fenton activity

ferrous di-pyruvate
Ferrous iron [1]: 49.5 mM
Total iron [1]: 50 mM
Ferric iron [1]: <1 mM
Sterilization of surfaces contaminated with B. subtilis spores [7]: sterilizes the surfaces
Number of leaf and root samples containing C. liberibacter spp nucleic acid (PCR) [8]: reduces the number of leaf and root samples containing C. liberibacter spp nucleic acid
Number of plants showing signs of chlorosis [8]: reduces the number of plants showing signs of chlorosis
Fenton activity (loss of blue color, brown precipitate) [2, 10]: exhibited Fenton activity
Fenton activity (loss of blue color, brown precipitate) ([2]; 1 ml 50 mM complex + 1 ml 40% H2O2, 0.1% (w/v) methylene blue, 1 hour at ambient temperature, listed as ferrous di-pyruvate complex): significant Fenton activity
Ferrous iron ([3]; 1 Day after complex formation): 99 mM
Total iron ([3]; 1 Day after complex formation): 100 mM
Ferrous iron [3, 11]: 97 mM
Total iron [3, 11]: 100 mM
Ferrous iron [3, 12]: 98 mM
Total iron [3, 12]: 100 mM
Stability of solutions of the complex [3]: stable for up to six months
Cell killing of B. subtilis cells or spores (viable CFU) [9]: higher levels of cell killing
Symptoms of Pcb infection in potato plants [4]: reduce symptom of Pcb infection
Effect on growth of X. campestris (in words) ([6]; Table 5, most pronounced after preincubation with ascorbate and copper): able to block the growth of X. campestris
Killing of X. campestris (in words) ([6]; Table 6, most pronounced after preincubation with ascorbate and copper): able to kill X. campestris
CFU ([6]; no preincubation, addition 5 mM ascorbate + 5 μM Cu(II) + 0.25 mM FDP, 36 hour treatment): 2.28 × 10^9 CFU per ml
A600 ([6]; no preincubation, addition 5 mM ascorbate + 5 μM Cu(II) + 0.25 mM FDP): 0.420
A600 ([6]; no preincubation, addition 5 mM ascorbate + 0.25 mM FDP): 0.447
